This is an account of results in US4496590A, “Benzyl alcohol derivatives, their preparation and use” (Sterling Drug Inc., priority 1983, dated 1985).

One test has as its target T1, lipoxygenase (Rattus norvegicus, UniProt P12527).
T1 construct: Single cell suspensions of RBL-1 cells are homogenized to obtain the microsomal fraction containing lipoxygenase and cyclooxygenase; endogenous in cells; host or cells: RBL-1 (rat basophilic leukemia) cells, homogenate / microsomal fraction
T1 sequence (P12527 1-673): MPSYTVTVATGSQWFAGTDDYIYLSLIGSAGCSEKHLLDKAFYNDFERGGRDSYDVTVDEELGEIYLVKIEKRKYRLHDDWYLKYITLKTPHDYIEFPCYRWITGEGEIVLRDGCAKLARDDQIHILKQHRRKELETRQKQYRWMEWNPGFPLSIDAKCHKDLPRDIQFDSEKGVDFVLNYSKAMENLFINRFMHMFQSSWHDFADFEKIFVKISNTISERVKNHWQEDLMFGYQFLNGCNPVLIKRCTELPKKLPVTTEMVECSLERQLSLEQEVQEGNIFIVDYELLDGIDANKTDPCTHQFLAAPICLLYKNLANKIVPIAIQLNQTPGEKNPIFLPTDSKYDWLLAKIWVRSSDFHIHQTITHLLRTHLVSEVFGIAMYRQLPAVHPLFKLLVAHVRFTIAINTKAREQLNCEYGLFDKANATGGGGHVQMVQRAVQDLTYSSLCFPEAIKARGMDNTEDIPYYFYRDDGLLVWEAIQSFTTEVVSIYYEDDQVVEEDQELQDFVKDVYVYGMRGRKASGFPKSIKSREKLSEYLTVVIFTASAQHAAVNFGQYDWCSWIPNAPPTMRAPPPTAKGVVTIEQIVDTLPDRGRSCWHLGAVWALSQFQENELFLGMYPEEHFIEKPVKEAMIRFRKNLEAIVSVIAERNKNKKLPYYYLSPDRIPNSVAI
In words: inhibition of lipoxygenase derived from rat basophilic leukemia (RBL-1) cells (L1 5,12-di-HETE and L2 5-HETE formation). As to conditions: RBL-1 enzyme. In kind it is biochemical. As for the experimental part: (§1) The primary screening test used is a determination of the inhibition of lipoxygenase and cyclooxygenase derived from rat basophilic leukemia (RBL-1) cells. The test was carried out according to the following procedure:
(§2) Single cell suspensions of RBL-1 cells are homogenized to obtain the microsomal fraction containing lipoxygenase and cyclooxygenase. Test compounds are added to the enzyme-containing homogenate for a 5 min preincubation period at 37° C. prior to the addition of ^14 C-arachidonic acid substrate. Following incubation at 37° C. for 15 min, the reaction is stopped by the addition of 2M formic acid and the enzyme-substrate products are extracted into chloroform. An aliquot of the extract is evaporated to dryness, reconstituted in ether to 1/10 original volume, spotted on thin layer chromatography plates and chromatographed. The peak areas of radioactivity representing the products are located by scanning the plates. The quantity of products formed is estimated by measuring the height of the radioactivity peaks observed on the chromatographic scans. Alternatively, the areas of radioactivity are scraped from the plate and the ^14 C quantitated by scintillation counting. The percent inhibition in the formation of the cyclooxygenase product PGD2, designated as Cl and lipoxygenase products, L1 designated for 5,12-di-HETE and L2 for 5-HETE are shown. Compounds with >50% inhibition of L1 and L2 at a screening concentration of 1 μM are considered active.
(§3) ^(a) Percent inhibition of cyclooxygenase (C1) and lipoxygenase (L1
(§4) and L2) formation at a dose of 1 μM.
(§5) ^(b) Inhibitory concentration (μ M) in 50% of tests.

Test [1] has as its system SRS-A component of immunologically induced broncho-construction. The test can be described thus: effect on the SRS-A component of immunologically induced bronchoconstriction in guinea pigs. The format is in vivo. As to conditions: i.v.; for ED50: Cavia porcellus, iv, guinea pig, indomethacin + chlorpheniramine medicated, arachidonic acid, antigen challenge, read-out: In vivo Guinea Pig ED50 i.v. As for the experimental part:
The test was carried out according to the following procedure:
Two weeks after immunization with egg albumin, guinea pigs are prepared for bronchoconstruction determination. One hour prior to antigen challenge, each animal is dosed orally with idomethacin and chlorpheniramine. Animals are anesthetized with sodium pentobarbital, the trachea cannulated and the animal artifically respired. Arachidonic acid is administered intravenously prior to antigen challenge. The resulting bronchoconstruction is recorded by the standard lung overflow procedure and the peak increase in intratracheal pressure (mm Hg) over a 10 minute observation period is recorded. Compounds are evaluated for their ability to prevent the increased intratracheal pressure in an experimental group of animals as compared to the medicated (indomethacin+chlorpheniramine+arachidonic acid) control group. The results are expressed in terms of percent inhibition or as ED50 values (effective does in 50% of the animals).

The target in the next test is T2, cyclooxygenase (Rattus norvegicus, UniProt Q63921).
T2 construct: 14C-arachidonic acid substrate, PGD2 measured
T2 sequence (Q63921 27-602): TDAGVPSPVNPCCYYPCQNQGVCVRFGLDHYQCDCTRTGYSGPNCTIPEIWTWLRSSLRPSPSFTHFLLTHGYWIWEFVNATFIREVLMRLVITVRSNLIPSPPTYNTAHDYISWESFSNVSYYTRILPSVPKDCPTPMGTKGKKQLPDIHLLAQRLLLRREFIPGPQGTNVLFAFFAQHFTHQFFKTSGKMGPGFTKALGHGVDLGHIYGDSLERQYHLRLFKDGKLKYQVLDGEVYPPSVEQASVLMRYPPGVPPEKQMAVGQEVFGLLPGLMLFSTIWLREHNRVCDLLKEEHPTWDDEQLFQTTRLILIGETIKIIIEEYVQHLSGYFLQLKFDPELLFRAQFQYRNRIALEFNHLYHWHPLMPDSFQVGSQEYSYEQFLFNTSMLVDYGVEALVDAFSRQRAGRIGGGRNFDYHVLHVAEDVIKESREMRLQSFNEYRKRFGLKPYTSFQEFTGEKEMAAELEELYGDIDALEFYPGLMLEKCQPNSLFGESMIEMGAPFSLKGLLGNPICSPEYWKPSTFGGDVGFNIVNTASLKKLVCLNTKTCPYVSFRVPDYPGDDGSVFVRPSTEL
The test can be described thus: inhibition of cyclooxygenase derived from rat basophilic leukemia (RBL-1) cells (PGD2 formation, C1). As to conditions: RBL-1 enzyme, read-out: % Inhibition C1 (cyclooxygenase product PGD2). In kind it is biochemical. As for the experimental part:
as §1, §2, §3, §4, §5

The mark [2] stands for this setting: L1 5,12-di-HETE, read-out: % Inhibition L1 (lipoxygenase product 5,12-di-HETE).
Where [3] appears, read: L2 5-HETE, read-out: % Inhibition L2 (lipoxygenase product 5-HETE).
Setting [4] is: L1 5,12-di-HETE, read-out: IC50 L1 (lipoxygenase product 5,12-di-HETE).
[5] abbreviates: L2 5-HETE, read-out: IC50 L2 (lipoxygenase product 5-HETE).

Where two headings read alike, the source gives them in different places.

`COc1ccc(Nc2ccc(O)cc2)c(CO)c1` [Example 1c, 2-(4-Hydroxyphenylamino)-5-methoxybenzenemethanol]: the results for the inhibition at 1 µM on lipoxygenase (setting [2]), at lipoxygenase (setting [3]) and at cyclooxygenase were 88%, 98% and 2%, respectively. Moreover, the IC50 on lipoxygenase (setting [4]) turned out to be 0.2 µM; on lipoxygenase (setting [5]), 0.09 µM. Further, the ED50 in test [1] was determined as 0.13 mg/kg.
As to `OCc1ccccc1Nc1ccc(O)cc1` [Example 2c, 2-(4-Hydroxyphenylamino)benzenemethanol], the inhibition at 1 µM turned out to be 84% at lipoxygenase (setting [2]), 94% at lipoxygenase (setting [3]) and 4% on cyclooxygenase. Besides, the figures for the IC50 at lipoxygenase (setting [4]) and at lipoxygenase (setting [5]) were 0.38 µM and 0.28 µM, respectively. Also, the median effective dose (ED50) in test [1] amounted to 0.84 mg/kg.
In the case of `OCc1cc(Cl)ccc1Nc1ccc(O)cc1` [Example 3c, 5-Chloro-2-(4-hydroxyphenylamino)benzenemethanol], the inhibition at 1 µM stood at 81% on lipoxygenase (setting [2]), 99% at lipoxygenase (setting [3]) and 6% on cyclooxygenase. For the same compound, the concentration for half-maximal inhibition (IC50) turned out to be 0.06 µM on lipoxygenase (setting [4]) and 0.04 µM on lipoxygenase (setting [5]). In addition, the ED50 in test [1] came out at 0.49 mg/kg.
For the compound `OCc1ccc(Cl)cc1Nc1ccc(O)cc1` [Example 4c, 4-Chloro-2-(4-hydroxyphenylamino)benzenemethanol], the inhibition at 1 µM stood at 82% on lipoxygenase (setting [2]), 100% at lipoxygenase (setting [3]) and 24% on cyclooxygenase. Besides, the values for the IC50 at lipoxygenase (setting [4]) and at lipoxygenase (setting [5]) were 0.23 µM and 0.16 µM, respectively. Besides, the “In vivo Guinea Pig percent inhibition” value in test [1] (0.3 mg/kg) was determined as 43%; in test [1] (1-3 mg/kg), 63%.
In the case of `CC(O)c1ccccc1Nc1ccc(O)cc1` (stereo not drawn) [Example 5c, 2-(4-Hydroxyphenylamino)-α-methylbenzenemethanol], the inhibition at 1 µM turned out to be 86% at lipoxygenase (setting [2]), 99% on lipoxygenase (setting [3]) and 14% at cyclooxygenase. In addition, the figures for the IC50 at lipoxygenase (setting [4]) and at lipoxygenase (setting [5]) were 0.2 µM and 0.18 µM, respectively.
The matching figures for `COc1ccc(Nc2ccc(O)cc2)c(C(C)O)c1` (stereo not drawn) [Example 6c, 2-(4-Hydroxyphenylamino)-5-methoxy-α-methylbenzenemethanol]: 89%, 98%, 2%, 0.2 µM and 0.16 µM.
On to `COc1ccc(N=C2C=CC(=O)C=C2)c(CO)c1` [Example 8, 4-(2-Hydroxymethyl-4-methoxyphenylimino)-2,5-cyclohexadien-1-one], for which the inhibition at 1 µM at lipoxygenase (setting [2]) amounted to 85%; on lipoxygenase (setting [3]), 96%; on cyclooxygenase, 0%. For the same compound, the IC50 was found to be 0.19 µM at lipoxygenase (setting [4]) and 0.15 µM at lipoxygenase (setting [5]). The ED50 in test [1] worked out at 0.12 mg/kg.

As a reminder, the inhibition is the share of the control response that was lost under treatment. The term IC50 denotes the concentration at which inhibition is half-maximal. As usually defined, the ED50 is the dose at which the effect has come halfway, by size or by number of responders.
